Test results reported in patent US11730937B2, “Separable microneedle arrays for sustained release of drug” (Georgia Tech Research Corporation, priority 2017, dated 2023).

Experiment: in vivo
Details: female, Sprague Dawley, rat, iv, 0.006 mg
Method: Specifically, LNG pharmacokinetics were evaluated in adult female Sprague Dawley rats (200±12 g) by applying a LNG-loaded microneedle patch to each rat while under isoflurane anesthesia. The rats' dorsal skin was shaved before application of microneedle patches, taking care not to damage skin during shaving.
Plasma was then separated by centrifuging blood samples at 2000 g for 15 minutes at 4° C., and underwent subsequent analysis by enzyme-linked immunosorbent assay (ELISA, Thermo Fisher Scientific) following the manufacturer's instruction to determine LNG concentration.
Pharmacokinetic parameters were calculated using non-compartmental pharmacokinetic analysis. […] Bioavailability of LNG delivered from microneedles was calculated from the ratio of dose-normalized AUC values after microneedle patch administration and intravenous LNG injection.

Q: For `C#C[C@]1(O)CC[C@H]2[C@@H]3CCC4=CC(=O)CC[C@@H]4[C@H]3CC[C@@]21CC` [LNG, levonorgestrel], which AUC(0-inf) is on record?
A: Its AUC(0-inf) is 17.2 ± 0.3 ng·h/mL.

Q: And the AUC(0-t)?
A: Its AUC(0-t) is 17.2 ± 0.3 ng·h/mL.

Q: What about the half-life of the same molecule?
A: The half-life was 20.7 ± 0.6 h.
